Legend:
Experiment in all cases: relative viability (nuclei count vs DMSO), 5 days (fraction); higher = more cells survive
[1] = compound: C[C@@]1(C(=O)Nc2ccc(F)nc2)CCCN1c1nc(Nc2cc(C3CC3)n[nH]2)c2cccn2n1 + Nc1ncn([C@H]2C[C@H](O)[C@@H](CO)O2)c(=O)n1 [Decitabine] (partner 2 µM)
How it was run: (§1)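 Values are medians from duplicate plates. Each reflects relative viability, defined as the nuclei count of treated wells over that of vehicle wells. Lung cancer cell lines in 1536-well plates were pin-tool dosed one day after seeding with one drug alone or with a fixed anchor-drug dose plus five library-drug doses (not always all listed) in √10 steps, then fixed, stained and imaged at 4× after 5 days.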

[2] = compound: C[C@@]1(C(=O)Nc2ccc(F)nc2)CCCN1c1nc(Nc2cc(C3CC3)n[nH]2)c2cccn2n1 + CC1(C)CCC(c2ccc(Cl)cc2)=C(CN2CCN(c3ccc(C(=O)NS(=O)(=O)c4ccc(N[C@H](CCN5CCOCC5)CSc5ccccc5)c(S(=O)(=O)C(F)(F)F)c4)cc3)CC2)C1 [Navitoclax] (partner 0.5 µM)
How it was run: as §1

Motesanib + Decitabine = compound: CC1(C)CNc2cc(NC(=O)c3cccnc3NCc3ccncc3)ccc21 [Motesanib] + Nc1ncn([C@H]2C[C@H](O)[C@@H](CO)O2)c(=O)n1 [Decitabine] (partner 2 µM)
How it was run: as §1

Motesanib + Foretinib = compound: CC1(C)CNc2cc(NC(=O)c3cccnc3NCc3ccncc3)ccc21 [Motesanib] + COc1cc2c(Oc3ccc(NC(=O)C4(C(=O)Nc5ccc(F)cc5)CC4)cc3F)ccnc2cc1OCCCN1CCOCC1 [Foretinib] (partner 0.25 µM)
How it was run: as §1

Row | Cell Line | relative viability ([1]; first compound 0.04 µM) | relative viability ([1]; first compound 0.1265 µM) | relative viability ([1]; first compound 0.4 µM) | relative viability ([1]; first compound 1.265 µM) | relative viability ([2]; first compound 0.04 µM) | relative viability ([2]; first compound 0.1265 µM) | relative viability ([2]; first compound 0.4 µM) | relative viability ([2]; first compound 1.265 µM) | relative viability (Motesanib + Decitabine; first compound 0.01 µM) | relative viability (Motesanib + Decitabine; first compound 0.03162 µM) | relative viability (Motesanib + Decitabine; first compound 0.1 µM) | relative viability (Motesanib + Decitabine; first compound 0.3162 µM) | relative viability (Motesanib + Decitabine; first compound 1 µM) | relative viability (Motesanib + Foretinib; first compound 0.01 µM) | relative viability (Motesanib + Foretinib; first compound 0.03162 µM) | relative viability (Motesanib + Foretinib; first compound 0.1 µM) | relative viability (Motesanib + Foretinib; first compound 0.3162 µM) | relative viability (Motesanib + Foretinib; first compound 1 µM)
1 | NCI-H1915 | 0.266 | 0.278 | 0.251 | 0.258 | 0.774 | 0.767 | 0.836 | 0.779 | 0.272 | 0.262 | 0.36 | 0.306 | 0.383 | 1.07 | 1.06 | 1.09 | 1.14 | 1.06
2 | NCI-H1944 | 0.372 | 0.377 | 0.376 | 0.386 | 0.991 | 0.947 | 0.981 | 1.08 | 0.477 | 0.444 | 0.495 | 0.534 | 0.508 | 0.959 | 0.916 | 0.861 | 0.967 | 0.988
3 | NCI-H1975 | 0.38 | 0.388 | 0.319 | 0.303 | 0.988 | 1.06 | 0.773 | 0.765 | 0.364 | 0.459 | 0.406 | 0.487 | 0.426 | 0.978 | 0.9 | 0.908 | 0.898 | 0.899
4 | NCI-H1993 | 0.532 | 0.522 | 0.486 | 0.458 | 0.692 | – | 0.671 | 0.716 | 0.598 | 0.568 | 0.609 | 0.657 | 0.659 | 0.861 | 0.829 | 0.812 | 0.777 | 0.881
5 | NCI-H2009 | 0.401 | 0.369 | 0.406 | 0.313 | 1.26 | 1.23 | 1.11 | 1.29 | 0.394 | 0.369 | 0.394 | 0.38 | 0.463 | 1.23 | 1.21 | 1.23 | 1.22 | 1.21
6 | NCI-H2023 | 0.234 | 0.228 | 0.177 | 0.139 | 0.89 | 0.703 | 0.654 | 0.702 | 0.23 | 0.226 | 0.281 | 0.25 | 0.347 | 0.849 | 0.838 | 0.837 | 0.911 | 0.927
7 | NCI-H2085 | 0.51 | 0.499 | 0.538 | 0.528 | 1.22 | 1.07 | 0.984 | 1.05 | 0.551 | 0.684 | 0.702 | 0.644 | 0.71 | 0.896 | 1.22 | 0.973 | 1.07 | 1.03
8 | NCI-H2087 | 0.237 | 0.191 | 0.258 | 0.16 | 0.882 | 0.969 | 0.854 | 0.931 | – | – | 0.343 | 0.259 | 0.367 | 1.02 | 0.937 | 1.2 | 1.23 | 1.11
9 | NCI-H2126 | 0.539 | 0.389 | 0.36 | 0.471 | 0.669 | 0.725 | 0.591 | 0.761 | 0.608 | 0.645 | 0.625 | 0.698 | 0.709 | 1.13 | 1.12 | 1.17 | 1.31 | 1.11
10 | NCI-H2170 | 0.43 | 0.489 | 0.442 | 0.468 | 0.514 | 0.652 | 0.518 | 0.652 | 0.485 | 0.509 | 0.575 | 0.576 | 0.604 | 1.01 | 1.03 | 0.955 | 0.952 | 0.982
11 | NCI-H2347 | 0.571 | 0.574 | 0.487 | 0.599 | 0.777 | 0.544 | 0.661 | 0.846 | 0.667 | 0.578 | 0.701 | 0.642 | 0.674 | 0.85 | 0.429 | 1.14 | 0.614 | 1.86
12 | NCI-H2405 | 0.68 | 0.487 | 0.488 | 0.576 | 0.813 | 0.635 | 0.584 | 0.597 | 0.77 | 0.773 | 0.719 | 0.833 | 0.78 | – | 1.01 | 1.06 | 1.07 | 1.08
13 | NCI-H3122 | 0.361 | 0.337 | 0.349 | 0.386 | 1.05 | 1.06 | 1.06 | 1.02 | 0.436 | 0.409 | 0.422 | 0.548 | 0.614 | 0.951 | 0.938 | 0.821 | 1.01 | 0.986
14 | PC-3 [JPC-3] | 0.786 | 0.608 | 0.804 | 0.766 | 0.777 | 0.716 | 0.789 | 0.743 | 0.803 | 0.836 | 0.858 | 0.897 | 1.01 | 1.01 | 1.06 | 1.06 | 1.03 | 1.01
15 | PC-14 | 0.209 | 0.27 | 0.177 | 0.172 | 0.99 | 0.69 | 0.959 | 0.941 | 0.243 | 0.174 | 0.275 | 0.257 | 0.231 | 0.922 | 0.997 | 1 | 1.01 | 1.06
16 | RERF-LC-KJ | 0.662 | 0.629 | 0.468 | 0.467 | 0.842 | 0.579 | 0.846 | 0.592 | 0.652 | 0.752 | 0.719 | 0.67 | 0.665 | 0.876 | 0.866 | 0.848 | 0.864 | 0.892
17 | SK-LU-1 | 0.672 | 0.543 | 0.489 | 0.524 | 0.958 | 0.689 | 0.816 | 0.42 | 0.676 | 0.649 | 0.823 | 0.831 | 0.824 | 0.941 | 0.831 | 0.846 | 0.841 | 0.906
18 | SK-MES-1 | 0.333 | 0.424 | 0.333 | 0.344 | 1.3 | 0.995 | – | 1.1 | 0.358 | 0.383 | 0.59 | 0.561 | 0.695 | 0.949 | 0.963 | 0.982 | 0.945 | 0.86
